Measured values from article PMC12001203, “Binding‐Site Purification of Actives (B‐SPA) Enables Efficient Large‐Scale Progression of Fragment Hits by Combining Multi‐Step Array Synthesis With HT Crystallography” (Angewandte Chemie (International Ed. in English), 2025).

Target: T1, Pleckstrin Homology Domain‐Interacting Protein, second bromodomain (PHIP(2)) (Homo sapiens, UniProt Q8WWQ0)
T1 construct: second bromodomain (PHIP(2))
Assay: grating-coupled interferometry (waveRAPID) Kd; crystal structure; AlphaScreen IC50
Assay type: binding

`O=C(Nc1nc2ccccc2o1)N1CCN(C(=O)c2ccco2)CC1` [PHIP-AM1-20, PHIP‐AM1‐20] gave a Kd of 50 µM.
